According to US20030124084A1, “Use of dehydroepiandrosterone and/or precursors or derivatives thereof to improve papery aspect of the skin” (priority 2000, published 2003):

Key:
Assay type in all cases: in vivo, human
skin of the face [1] = experiment: Clinical scores of texture and flaccidness of the skin of the face
Procedure: (§1) This test was performed simultaneously with the one described in example 2, by applying the same products, onto the same groups of individuals, and under the same conditions, except that the products were applied to the skin of the face.
The texture of the skin and the flaccidness were assessed under blind conditions by the same clinician and are represented by clinical scores ranging from 0 (unpronounced or relatively unpronounced parameter) to 9 (very pronounced parameter).
(§2) The statistical analysis was performed by Wilcoxon tests.

[2] = system: weathered appearance of the skin; experiment: Clinical score of the weathered appearance of the skin, back of the hand, treated hand vs control hand
Procedure: A gelled oil-in-water emulsion containing 1% by weight of DHEA as sole active agent was tested in comparison with a vehicle consisting of an identical emulsion but not containing DHEA.
The products were tested on a group of forty women aged from 55 to 70. Half of the individuals applied the vehicle and the other half applied the DHEA-based emulsion, the choice of the individuals being made according to a computer-generated randomization. The emulsion was applied in the morning and in the evening for four months to the back of only one hand, the other hand serving as a control. The amounts applied were controlled by weighing the tubes at the start and end of the test.
The weathered appearance is assessed clinically under blind conditions on the back of each hand, at the start of the test and after four months, by the same clinician. The weathered appearance is represented by a clinical score ranging from 0 (weathered appearance absent or relatively unpronounced) to 9 (very pronounced weathered appearance).
The statistical analysis is performed by Wilcoxon tests.

skin of the face [3] = experiment: Elasticity of the skin by Dermal Torque Meter
Procedure: as §1
The elasticity of the skin was assessed, at the start of the test and after four months, using the apparatus available under the tradename Dermal Torque Meter® from DTM® Dia-Stron Limited, Andover, Hampshire, United Kingdom. This apparatus makes it possible to study the response of the skin to a deformation applied in the direction parallel to its surface, as described in Escoffier C et al., Age-Related Mechanical Properties of Human Skin: an in Vivo Study, J. Invest. Dermatol., 1989, 93:353-357.
as §2

[4] = after four months, 1% DHEA emulsion topical on face, score 0 to 9
[5] = four months vs placebo, Wilcoxon test
[6] = start of test, face, score 0 to 9

SMILES: C[C@]12CC[C@H](O)CC1=CC[C@@H]1[C@@H]2CC[C@]2(C)C(=O)CC[C@@H]12 [DHEA, dehydroepiandrosterone]
- Flaccidness clinical score, T4 (skin of the face [1]; [4]): 4.15
- Texture clinical score, T4 (skin of the face [1]; [4]): 3.8
- effect of topical application on flaccidness of the skin (skin of the face [1]; [5]): does not significantly modify
- effect of topical application on texture of the skin (skin of the face [1]; [5]): does not significantly modify
- Flaccidness clinical score, T0 (skin of the face [1]; [6]): 4.45
- Texture clinical score, T0 (skin of the face [1]; [6]): 4
- score for the weathered appearance on the treated hand vs control hand ([2]; after four months, 1% DHEA emulsion topical morning and evening on back of one hand, score 0 to 9, significant at p=0.05): lower
- difference in scores of the weathered appearance between the two hands ([2]; initial time (To), clinical score 0 to 9, women aged 55 to 70): virtually nonexistent
- Elasticity, T4 (skin of the face [3]; after four months, 1% DHEA emulsion topical on face, Dermal Torque Meter): 0.66
- effect of topical application on elasticity of the skin (skin of the face [3]; [5]): does not significantly modify
- Elasticity, T0 (skin of the face [3]; start of test, face, Dermal Torque Meter): 0.77
